According to the supplement of paper PMC10307832:

Assays:
Test in all cases: relative viability (nuclei count vs DMSO), 5 days (fraction); higher = more cells survive
Entinostat + Vorinostat = compound: Nc1ccccc1NC(=O)c1ccc(CNC(=O)OCc2cccnc2)cc1 [Entinostat] + O=C(CCCCCCC(=O)Nc1ccccc1)NO [Vorinostat] (partner 1 µM)
Summary of the method: (§1)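 The day after seeding in 1536-well plates, lung cancer cell lines were treated by pin tool with a single drug, or with a fixed anchor-drug dose together with five library-drug doses (not always all listed) in √10 steps. After 5 days, a combined fix-and-stain solution (final 0.05% Triton X-100, 1% formaldehyde, 1 ug/ml Hoechst) was added. Nuclei counted on 4× images gave relative viability as treated counts over vehicle counts, reported as the median of duplicate plates.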

Entinostat + AZD7762 = compound: Nc1ccccc1NC(=O)c1ccc(CNC(=O)OCc2cccnc2)cc1 [Entinostat] + NC(=O)Nc1cc(-c2cccc(F)c2)sc1C(=O)N[C@H]1CCCNC1 [AZD7762] (partner 0.2 µM)
Summary of the method: as §1

SGI-1776 + Navitoclax = compound: CN1CCC(CNc2ccc3ncc(-c4cccc(OC(F)(F)F)c4)n3n2)CC1 [SGI-1776] + CC1(C)CCC(c2ccc(Cl)cc2)=C(CN2CCN(c3ccc(C(=O)NS(=O)(=O)c4ccc(N[C@H](CCN5CCOCC5)CSc5ccccc5)c(S(=O)(=O)C(F)(F)F)c4)cc3)CC2)C1 [Navitoclax] (partner 0.5 µM)
Summary of the method: as §1

Entinostat + Decitabine = compound: Nc1ccccc1NC(=O)c1ccc(CNC(=O)OCc2cccnc2)cc1 [Entinostat] + Nc1ncn([C@H]2C[C@H](O)[C@@H](CO)O2)c(=O)n1 [Decitabine] (partner 2 µM)
Summary of the method: as §1

Cell Line | relative viability (Entinostat + Vorinostat; first compound 0.02 µM) | relative viability (Entinostat + Vorinostat; first compound 0.06325 µM) | relative viability (Entinostat + Vorinostat; first compound 0.2 µM) | relative viability (Entinostat + Vorinostat; first compound 0.6325 µM) | relative viability (Entinostat + Vorinostat; first compound 2 µM) | relative viability (Entinostat + AZD7762; first compound 0.02 µM) | relative viability (Entinostat + AZD7762; first compound 0.06325 µM) | relative viability (Entinostat + AZD7762; first compound 0.2 µM) | relative viability (Entinostat + AZD7762; first compound 0.6325 µM) | relative viability (Entinostat + AZD7762; first compound 2 µM) | relative viability (SGI-1776 + Navitoclax; first compound 0.08 µM) | relative viability (SGI-1776 + Navitoclax; first compound 0.8 µM) | relative viability (SGI-1776 + Navitoclax; first compound 2.53 µM) | relative viability (SGI-1776 + Navitoclax; first compound 8 µM) | relative viability (Entinostat + Decitabine; first compound 0.02 µM) | relative viability (Entinostat + Decitabine; first compound 0.06325 µM) | relative viability (Entinostat + Decitabine; first compound 0.2 µM) | relative viability (Entinostat + Decitabine; first compound 0.6325 µM) | relative viability (Entinostat + Decitabine; first compound 2 µM)
NCI-H2347 | 0.368 | 0.643 | 0.528 | 0.303 | 0.264 | 0.741 | 0.755 | 0.576 | 0.378 | 0.255 | 0.886 | 0.787 | 0.808 | 0.673 | 0.611 | 0.585 | 0.494 | 0.471 | 0.363
NCI-H3122 | 1.09 | 0.904 | 0.979 | 0.634 | 0.255 | 1.03 | 1.01 | 1.15 | 0.971 | 0.805 | 1.01 | 1.03 | 1.03 | 1.04 | 0.439 | 0.47 | 0.477 | 0.339 | 0.243
NCI-H2085 | 0.731 | 0.763 | 0.788 | 0.608 | 0.419 | 0.965 | 0.93 | 0.909 | 0.683 | 0.692 | 1.18 | 1.07 | 1.2 | 0.945 | 0.552 | 0.545 | 0.51 | 0.483 | 0.405
PC-14 | 0.689 | 0.668 | 0.615 | 0.147 | 0.0636 | 0.577 | 0.364 | 0.397 | 0.165 | 0.0725 | 0.97 | 1.05 | 1.04 | 0.93 | 0.248 | 0.184 | 0.189 | 0.109 | 0.0779
NCI-H1355 | 0.604 | 0.638 | 0.62 | 0.504 | 0.381 | 0.634 | 0.789 | 0.618 | 0.546 | 0.369 | 0.952 | 0.967 | 0.883 | 0.798 | 0.356 | 0.335 | 0.3 | 0.315 | 0.266
NCI-H727 | 1.24 | 1.27 | 1.16 | 1.06 | 0.673 | 0.598 | 0.667 | 0.624 | 0.646 | 0.776 | 0.426 | 0.446 | 0.346 | 0.247 | 0.913 | 1.35 | 1.03 | 0.853 | 0.681
NCI-H1755 | 0.762 | 0.728 | 0.769 | 0.48 | 0.374 | 0.406 | 0.486 | 0.493 | 0.405 | 0.355 | 1.02 | 0.976 | 0.934 | 0.856 | 0.681 | 0.71 | 0.583 | 0.494 | 0.45
NCI-H1651 | 0.599 | 0.645 | 0.449 | 0.496 | 0.314 | 0.452 | 0.48 | 0.377 | 0.394 | 0.245 | 1.19 | 1.04 | 0.9 | 0.825 | 0.666 | 0.824 | 0.609 | 0.558 | 0.19
NCI-H647 | 0.513 | 0.577 | 0.345 | 0.209 | 0.0916 | 0.49 | 0.557 | 0.55 | 0.186 | 0.0556 | 1.1 | 0.993 | 1.18 | 0.715 | 0.382 | 0.256 | 0.258 | 0.166 | 0.166
NCI-H1944 | 0.59 | 0.576 | 0.452 | 0.307 | 0.246 | 0.413 | 0.463 | 0.394 | 0.259 | 0.238 | 1.03 | 1.09 | 1.07 | 1.07 | 0.391 | 0.372 | 0.258 | 0.25 | 0.245
LK-2 | 0.237 | 0.293 | 0.279 | 0.188 | 0.154 | 0.481 | 0.623 | 0.5 | 0.345 | 0.21 | 0.98 | 0.828 | 0.772 | 0.549 | 0.311 | 0.335 | 0.262 | 0.165 | 0.115
HCC-15 | 0.81 | 0.807 | 0.636 | 0.51 | 0.266 | 1.19 | 1.2 | 1.26 | 0.774 | 0.457 | 0.707 | 0.728 | 0.599 | 0.475 | 0.622 | 0.508 | 0.46 | 0.261 | 0.151
NCI-H838 | 0.784 | 0.688 | 0.667 | 0.458 | 0.257 | 0.993 | 0.973 | 0.814 | 0.917 | 0.712 | 1.12 | 1.22 | 1.14 | 0.869 | 0.484 | 0.541 | 0.477 | 0.431 | 0.341
HOP-62 | 0.565 | 0.534 | 0.494 | 0.228 | 0.132 | 0.535 | 0.711 | 0.545 | 0.222 | 0.15 | 1.09 | 1.11 | 1.09 | 0.967 | 0.272 | 0.248 | 0.248 | 0.213 | 0.132
NCI-H322M | 0.967 | 0.975 | 0.981 | 0.876 | 0.808 | 0.591 | 0.64 | 0.958 | 0.731 | 0.621 | 1.28 | 1.25 | 1.15 | 1.12 | 0.742 | 0.722 | 0.787 | 0.725 | 0.665
NCI-H1395 | 1.05 | 0.96 | 0.829 | 0.65 | 0.463 | 0.39 | 0.386 | 0.395 | 0.373 | 0.356 | 1.08 | 1.41 | 1.13 | 0.836 | 0.693 | 0.726 | 0.626 | 0.556 | 0.492
NCI-H1734 | 0.846 | 0.861 | 0.84 | 0.604 | 0.489 | 0.5 | 0.476 | 0.364 | 0.259 | 0.244 | 0.829 | 0.851 | 0.884 | 0.759 | 0.555 | 0.483 | 0.464 | 0.451 | 0.298
EKVX | 0.801 | 0.654 | 0.65 | 0.467 | 0.42 | 0.763 | 0.645 | 0.645 | 0.416 | 0.265 | 1.03 | 0.907 | 0.999 | 0.888 | 0.307 | 0.351 | 0.281 | 0.207 | 0.244
LOU-NH91 | 0.971 | 0.909 | 0.872 | 0.718 | 0.56 | 0.729 | 0.807 | 0.735 | 0.664 | 0.653 | 0.747 | 0.744 | 0.698 | 0.445 | 0.813 | 0.788 | 0.802 | 0.771 | 0.689
NCI-H1437 | 0.612 | 0.466 | 0.383 | 0.261 | 0.254 | 1.12 | 0.947 | 0.781 | 0.396 | 0.369 | 1.13 | 1.07 | 1.11 | 1.04 | 0.522 | 0.436 | 0.357 | 0.267 | 0.217
EPLC-272H | 0.483 | 0.397 | 0.33 | 0.236 | 0.139 | 0.339 | 0.224 | 0.141 | 0.137 | 0.14 | 1.15 | 1.15 | 1.25 | 0.969 | 0.409 | 0.383 | 0.325 | 0.25 | 0.218
ChaGo-K-1 | 0.765 | 0.763 | 0.768 | 0.626 | 0.464 | 0.872 | 0.861 | 0.962 | 0.897 | 0.692 | 0.849 | 1.23 | 0.624 | 0.716 | 0.572 | 0.545 | 0.543 | 0.443 | 0.45
NCI-H1666 | 1.05 | 0.979 | 0.934 | 0.835 | 0.601 | 1.07 | 0.918 | 0.812 | 0.835 | 0.519 | 0.907 | 0.772 | 0.836 | 0.705 | 0.887 | 0.793 | 0.707 | 0.669 | 0.511
HCC-44 | 1.08 | 0.976 | 0.938 | 0.879 | 0.653 | 1.02 | 0.876 | 1.02 | 0.995 | 0.774 | 0.935 | 0.909 | 1.08 | 0.928 | 0.997 | 0.841 | 0.938 | 0.721 | 0.611
RERF-LC-KJ | 0.68 | 0.665 | 0.578 | 0.381 | 0.25 | 1.12 | 1.07 | 0.748 | 0.707 | 0.329 | 0.936 | 1.04 | 0.937 | 0.789 | 0.712 | 0.685 | 0.663 | 0.369 | 0.285
LU99A | 0.521 | 0.499 | 0.503 | 0.388 | 0.326 | 0.353 | 0.475 | 0.378 | 0.224 | 0.254 | 0.903 | 0.782 | 0.898 | 0.81 | 0.953 | 0.952 | 0.749 | 0.696 | 0.646
PC-3 [JPC-3] | 1.15 | 0.911 | 0.597 | 0.525 | 0.36 | 1.06 | 0.804 | 0.738 | 0.522 | 0.231 | 0.704 | 0.767 | 0.862 | 0.699 | 0.778 | 0.852 | 0.731 | 0.573 | 0.55
NCI-H2126 | 0.74 | 0.883 | 0.733 | 0.314 | 0.317 | 0.936 | 1.03 | 1.01 | 0.737 | 0.495 | 0.809 | 0.877 | 0.846 | 0.743 | 0.557 | 0.53 | 0.57 | 0.418 | 0.346
